Results published in patent publication US7378375B1, “Substituted pyridine herbicides” (Syngenta Crop Protection, Inc., priority 2000, dated 2008).

Structure (SMILES) | melting point [°C]
COCCOCc1nc(C(F)(F)F)ccc1C(=O)C1=C(O)C(C)(C)C(=O)C(C)(C)C1=O [1.012] | 99 to 100
O=C(C1=C(O)C2CCC(C2)C1=O)c1ccc(C(F)(F)F)nc1COCC1CO1 (stereo not shown) [1.015] | 54 to 56
C#CCOCc1nc(C(F)(F)F)ccc1C(=O)C1=C(O)C2CCC(C2)C1=O (stereo not shown) [1.016] | 71 to 74
COCOCc1nc(C(F)(F)F)ccc1C(=O)C1=C(O)C2CCC(C2)C1=O (stereo not shown) [1.017] | 95 to 98
C=CCOCc1nc(C(F)(F)F)ccc1C(=O)C1=C(O)C2CCC(C2)C1=O (stereo not shown) [1.018] | 53 to 55
COCc1nc(C(F)(F)F)ccc1C(=O)c1cnn(C)c1O [1.019] | 32 to 34
CCOCc1nc(C(F)(F)F)ccc1C(=O)c1cnn(C)c1O [1.020] | 32 to 33
CCOCCOCc1nc(C(F)(F)F)ccc1C(=O)c1cnn(C)c1O [1.022] | 38 to 39
COc1ccccc1OCc1nc(C(F)(F)F)ccc1C(=O)C1=C(O)C2CCC(C2)C1=O (stereo not shown) [1.028] | 113 to 115
COC(=O)COCc1nc(C(F)(F)F)ccc1C(=O)C1=C(O)C2CCC(C2)C1=O (stereo not shown) [1.031] | 106 to 107
CC(=O)OCCOCc1nc(C(F)(F)F)ccc1C(=O)C1=C(O)C2CCC(C2)C1=O (stereo not shown) [1.050] | 90 to 93
CCCOCCOCc1nc(C(F)(F)F)ccc1C(=O)C1=C(O)C2CCC(C2)C1=O (stereo not shown) [1.052] | 41 to 43
O=C(OCCOCc1nc(C(F)(F)F)ccc1C(=O)C1=C(OC(=O)c2ccccc2)C2CCC(C2)C1=O)c1ccccc1 (stereo not shown) [1.055] | 96 to 98
CC(C)(C)C(=O)OC1=C(C(=O)c2ccc(C(F)(F)F)nc2COCCO)C(=O)C2CCC1C2 (stereo not shown) [1.059] | 79 to 81
O=C(C1=C(O)C2CCC(C2)C1=O)c1ccc(C(F)(F)F)nc1COC1COC1 (stereo not shown) [1.065] | 102 to 105
O=C(C1=C(O)C2CCC(C2)C1=O)c1ccc(C(F)(F)F)nc1COCCOCC(F)(F)F (stereo not shown) [1.066] | 40 to 44
O=C(C1=C(O)C2CCC(C2)C1=O)c1ccc(C(F)(F)F)nc1COCc1ccccc1 (stereo not shown) [1.068] | 68 to 69
O=C(C1=C(O)C2CCC(C2)C1=O)c1ccc(C(F)(F)F)nc1COCCCOCc1ccccc1 (stereo not shown) [1.069] | 78 to 80
COCCOCc1nc(C(F)(F)F)ccc1C(=O)C1C(=O)CCC2(CC2)C1=O (stereo not shown) [1.070] | 40 to 42
O=C(c1ccc(C(F)(F)F)nc1COCC1CCCO1)C1C(=O)C2CCC(C2)C1=O (stereo not shown) [1.073] | 46 to 47
CC1(C)C(=O)C(C(=O)c2ccc(C(F)(F)F)nc2COCc2ccccc2)C(=O)C(C)(C)C1=O [1.076] | 75 to 76
O=C(c1ccc(C(F)(F)F)nc1COCCCl)C1C(=O)C2CCC(C2)C1=O (stereo not shown) [1.080] | 63 to 64
COCCOCc1nc(C(F)(F)F)ccc1C(=O)C1=C(O)CC(C)CC1=O (stereo not shown) [1.082] | 76 to 78
CN(Cc1nc(C(F)(F)F)ccc1C(=O)C1=C(O)C2CCC(C2)C1=O)S(C)(=O)=O (stereo not shown) [1.090] | 149 to 150
CN(Cc1nc(C(F)(F)F)ccc1C(=O)c1cnn(C)c1O)S(C)(=O)=O [1.091] | 110 to 112
